Reference: US10898548B2, “Modulators of protein tyrosine phosphatase and uses thereof” (LEUVAS THERAPEUTICS, priority 2015, dated 2021)
Marks after values point to notes of the source that are not given here.

Experiments:
[1] = system: protein tyrosine phosphorylation in fMLP-stimulated monocytes; assay: Kinexus antibody microarray of tyrosine phosphorylation in fMLP-stimulated monocytes; type: cell-based, human; design: key to Functional effect of P1-WD on BTK / Functional effect of P1-WD on CDK2 / Functional effect of P1-WD on CTTN / Functional effect of P1-WD on DAB1 / Functional effect of P1-WD on DOK2 / Functional effect of P1-WD on ERBB2 / Functional effect of P1-WD on GRIN2B / Functional effect of P1-WD on ITGB1 / Functional effect of P1-WD on JAK2 / Functional effect of P1-WD on KDR / Functional effect of P1-WD on KIT / Functional effect of P1-WD on LIMK1 / Functional effect of P1-WD on MET / Functional effect of P1-WD on PDGFRA / Functional effect of P1-WD on PDGFRB / Functional effect of P1-WD on PRKCD / Functional effect of P1-WD on SHC1 / Functional effect of P1-WD on STAT1 / Functional effect of P1-WD on STAT2 / Functional effect of P1-WD on STAT3 / Functional effect of P1-WD on STAT5A / Functional effect of P1-WD on VCL / Functional effect of P1-WD on ABL1 / Functional effect of P1-WD on BLNK / Functional effect of P1-WD on BMX: inhibition (IN); activation (ACT)
Text: To identify PTPRG targets in the context of fMLP signaling, we employed a high throughput antibody array technology using the P1-WD approach and fMLP-potentiated signaling networks, since this directly correlates with integrin triggering and mediated rapid adhesion. To analyze the phosphoproteome we used the comprehensive high throughput service developed by Kinexus, CA, USA. The Kinexus antibody microarray includes about 500 pan-specific and over 350 phosphosite-specific antibodies per chip, in duplicate spots. The analysis covers a variety of selected cell signaling proteins regulating cell proliferation, stress, apoptosis, adhesion, secretion, motility and other biological processes. Monocytes were treated with 50 μM P1 or P1-WD peptides for 60 min. at 37° C. and then stimulated with 50 nM fMLP for 3 min. Cells were immediately lysed according to Kinexus protocol and the samples were sent to Kinexus for microarray analysis. Data were normalized to control cells and statistically filtered by Kinexus to identify the most significant best hits. The analysis was, then, focused on phosphotyrosine-specific antibodies. Network inference analysis was performed within Cytoscape 3.1 bioinformatics environment by using previously established interatomic datasets compiled from public data-bases. The compiled protein-protein interatomic data-set was manually curated to remove self-loops and duplicate edges; different protein IDs were normalized to HGNC standard IDs. The set of 31 identified proteins whose tyrosine phosphorylation status was affected by PTPRG activity was used as bioinformatics probe allowing sub-network reconstruction. Directed node centrality indexes were computed with the Cytoscape plug-in Centiscape 2.1 (Scardoni G, et al., 2009, Bioinformatics 25: 2857-2859). Network modular decomposition was executed with the Cytoscape plug-in MCODE (Bader G, et al., 2003, BMC Bioinformatics 4: 2). Literature data mining was performed by multiple data base interrogation, mainly based on Phosphosite, PhosphoELM, PhosphoNet and KEA.
Data analysis identified 31 molecules whose phosphorylation was modified in a statistically significant manner (Table 9). Values in % columns are percentage increase or decrease of protein tyrosine phosphorylation upon fMLP-triggering in P1-WD-treated vs P1-control treated monocytes. For some proteins (For some proteins (EGFR, INSR, KDR, KIT, PDGFRA, PTK2, PXN, SRC and ZAP70) multiple phosphotyrosine residues are detected. From left to right, columns are HGNC protein symbols (in alphabetic order), phosphosites (p-Sites), changes of phosphorylation (induced by P1-WD) and the putative functional effect, inferred from literature data-mining. EGFR and PTK2 are highlighted in gray since the functional effect could not be unambiguously inferred. The functional effect of P1-WD in the far right column indicates either inhibition (IN) or activation (ACT).

[2] = system: Hbb^th3/+ mice (β-thalassemia model); assay: circulating erythroblasts; type: in vivo, mouse; conditions: TAT-ICD 5 mg/kg i.p once every other day for 3 weeks
[3] = P1-WD vs P1, 50 μM 60 min, 50 nM fMLP 3 min
[4] = putative, inferred from literature data-mining
[5] = putative, inferred from literature data-mining, per p-Site

In the case of “P1-WD: fusion Trojan peptide SEQ ID 3: Penetratin, glycine, PTPRG wedge domain aa 831-856; RQIKIWFQNRRMKWKKGKQFVKHIGELYSNNQHGFSEDFEEVQ (listed as Homo sapiens)”, the “change of ABL1 Y412 tyrosine phosphorylation” value [1, 3] is reported as −40%, the “change of BLNK Y84 tyrosine phosphorylation” value [1, 3] is reported as 19% and the “change of BMX Y40 tyrosine phosphorylation” value [1, 3] is reported as −7%. For the same substance, the “change of BTK Y223 tyrosine phosphorylation” value [1, 3] was −58%, the “change of CDK2 Y15 tyrosine phosphorylation” value [1, 3] was 282% and the “change of CTTN Y470 tyrosine phosphorylation” value [1, 3] was 21%. For the same substance, the “change of DAB1 Y198 tyrosine phosphorylation” value [1, 3] was −34%, the “change of DOK2 Y142 tyrosine phosphorylation” value [1, 3] was 9% and the “change of EGFR Y1068 tyrosine phosphorylation” value [1, 3] was −13%. The “change of EGFR Y1148 tyrosine phosphorylation” value [1, 3] was −16%, the “change of EGFR Y1173 tyrosine phosphorylation” value [1, 3] was 68% and the “change of ERBB2 Y1248 tyrosine phosphorylation” value [1, 3] was 34%. The “change of GRIN2B Y1474 tyrosine phosphorylation” value [1, 3] was 29%, the “change of INSR Y999 tyrosine phosphorylation” value [1, 3] was 58% and the “change of INSR Y1189/Y1190 tyrosine phosphorylation” value [1, 3] was 27%. The “change of ITGB1 Y783 tyrosine phosphorylation” value [1, 3] was −11%, the “change of JAK2 Y1007/Y1008 tyrosine phosphorylation” value [1, 3] was −33% and the “change of KDR Y1054 + Y1059 tyrosine phosphorylation” value [1, 3] was 22%. The “change of KDR Y1054 tyrosine phosphorylation” value [1, 3] was −37%, the “change of KIT Y703 tyrosine phosphorylation” value [1, 3] was −60% and the “change of KIT Y730 tyrosine phosphorylation” value [1, 3] was −47%. The “change of LIMK1 Y507 tyrosine phosphorylation” value [1, 3] was −10%, the “change of MET Y1003 tyrosine phosphorylation” value [1, 3] was −47% and the “change of PDGFRA Y742 tyrosine phosphorylation” value [1, 3] was 133%. For the same substance, the “change of PDGFRA Y754 tyrosine phosphorylation” value [1, 3] was 86%, the “change of PDGFRB Y716 tyrosine phosphorylation” value [1, 3] was −36% and the “change of PRKCD Y313 tyrosine phosphorylation” value [1, 3] was 189%. The “change of PTK2 Y397 tyrosine phosphorylation” value [1, 3] was 30%, the “change of PTK2 Y576 tyrosine phosphorylation” value [1, 3] was 65% and the “change of PTK2 Y577 tyrosine phosphorylation” value [1, 3] was −60%. For the same substance, the “change of PTK2 Y861 tyrosine phosphorylation” value [1, 3] was −11%, the “change of PXN Y31 tyrosine phosphorylation” value [1, 3] was 19% and the “change of PXN Y118 tyrosine phosphorylation” value [1, 3] was 144%. The “change of SHC1 Y349 + Y350 tyrosine phosphorylation” value [1, 3] was −10%, the “change of SRC Y419 tyrosine phosphorylation” value [1, 3] was −6% and the “change of SRC Y530 tyrosine phosphorylation” value [1, 3] was 94%. For the same substance, the “change of STAT1 Y701 tyrosine phosphorylation” value [1, 3] was 38%, the “change of STAT2 Y690 tyrosine phosphorylation” value [1, 3] was 61% and the “change of STAT3 Y705 tyrosine phosphorylation” value [1, 3] was 182%. For the same substance, the “change of STAT5A Y694 tyrosine phosphorylation” value [1, 3] was 50%, the “change of VCL Y821 tyrosine phosphorylation” value [1, 3] was −20% and the “change of ZAP70 Y292 tyrosine phosphorylation” value [1, 3] was −46%. For the same substance, the “change of ZAP70 Y315 + Y319 tyrosine phosphorylation” value [1, 3] was 12%, the “Functional effect of P1-WD on ABL1” value [1, 4] was “IN” and the “Functional effect of P1-WD on BLNK” value [1, 4] was “ACT”. For the same substance, the “Functional effect of P1-WD on BMX” value [1, 4] was “IN”, the “Functional effect of P1-WD on BTK” value [1, 4] was “IN” and the “Functional effect of P1-WD on CDK2” value [1, 4] was “IN”. For the same substance, the “Functional effect of P1-WD on CTTN” value [1, 4] was “IN”, the “Functional effect of P1-WD on DAB1” value [1, 4] was “IN” and the “Functional effect of P1-WD on DOK2” value [1, 4] was “ACT”. The “Functional effect of P1-WD on ERBB2” value [1, 4] was “ACT”, the “Functional effect of P1-WD on GRIN2B” value [1, 4] was “ACT” and the “Functional effect of P1-WD on ITGB1” value [1, 4] was “IN”. The “Functional effect of P1-WD on JAK2” value [1, 4] was “IN”, the “Functional effect of P1-WD on KDR” value [1, 4] was “IN” and the “Functional effect of P1-WD on KIT” value [1, 4] was “IN”. The “Functional effect of P1-WD on LIMK1” value [1, 4] was “IN”, the “Functional effect of P1-WD on MET” value [1, 4] was “IN” and the “Functional effect of P1-WD on PDGFRA” value [1, 4] was “ACT”. The “Functional effect of P1-WD on PDGFRB” value [1, 4] was “IN”, the “Functional effect of P1-WD on PRKCD” value [1, 4] was “ACT” and the “Functional effect of P1-WD on SHC1” value [1, 4] was “IN”. The “Functional effect of P1-WD on STAT1” value [1, 4] was “ACT”, the “Functional effect of P1-WD on STAT2” value [1, 4] was “ACT” and the “Functional effect of P1-WD on STAT3” value [1, 4] was “ACT”. For the same substance, the “Functional effect of P1-WD on STAT5A” value [1, 4] was “ACT”, the “Functional effect of P1-WD on VCL” value [1, 4] was “IN” and the “Functional effect of P1-WD on INSR” value [1, 5] was “ACT/ACT”. For the same substance, the “Functional effect of P1-WD on PXN” value [1, 5] was “ACT/ACT”, the “Functional effect of P1-WD on SRC” value [1, 5] was “IN/IN” and the “Functional effect of P1-WD on ZAP70” value [1, 5] was “ACT/ACT”. The “Functional effect of P1-WD on PTK2” value ([1]; putative, inferred from literature data-mining, per p-Site Y397/Y577/Y576/Y861, cell wraps to r32 (/IN)) was “ACT/IN/ACT” and the “Functional effect of P1-WD on EGFR” value ([1]; putative, inferred from literature data-mining, per p-Site Y1068/Y1148/Y1173) was “IN/IN/ACT”.

“TAT-ICD: fusion recombinant protein SEQ ID 5: PTPRG intracellular domain aa 797-1445 fused to 13 aa TAT sequence” was tested, and the circulating erythroblasts ([2]; Hbb^th3/+ mice, Vehicle-treated 32.0) was 10.8* and the circulating erythroblasts ([2]; Wild-type mice, Vehicle-treated 0) was 0.
